Experimental data reported in patent US20220162191A1, “SMALL MOLECULE MODULATORS OF IL-17” (LEO PHARMA A/S, priority 2019, published 2022).

What follows are compounds tested against T1, human IL-17AA (Homo sapiens, UniProt Q16552) (assay: IL-8 release assay in human epithelial keratinocytes adult (HEKa)). Conditions: 3 ng/ml human IL-17AA + 10 ng/ml human TNFalpha, 68-72 h, IL-8 by HTRF, read-out: Rel EC50 L-8 release assay.
T1 construct: host or cells: HEK (human embryonic kidney) cells
T1 sequence (Q16552 24-155) 1: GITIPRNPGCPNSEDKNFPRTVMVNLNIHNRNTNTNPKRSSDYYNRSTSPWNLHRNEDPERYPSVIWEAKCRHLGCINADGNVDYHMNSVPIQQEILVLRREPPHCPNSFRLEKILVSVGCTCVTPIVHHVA
T1 sequence (Q16552 24-155) 2: T1 sequence (Q16552 24-155) 1
Type: cell-based
How it was run: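 Adult human keratinocytes in Epilife with HKGS minus hydrocortisone, treated with compound then stimulated with final 3 ng/ml HEK-derived human IL-17AA plus 10 ng/ml TNF-alpha for 68–72 h at 37 °C; TNF-alpha alone defines 100% inhibition. Secreted IL-8 by HTRF; relative IC50 and Emax from four-parameter fits.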
`CC(C)n1cc(-c2ccc(Cl)c(C[C@H](NC(=O)c3ccnn3C)C(=O)Nc3ccc(-c4cncn4C)c(F)c3)c2)ccc1=O` [Example 135, N-[(1S)-1-[[2-chloro-5-(1-isopropyl-6-oxo-3-pyridyl)phenyl]methyl]-2-[3-fluoro-4-(3-methylimidazol-4-yl)anilino]-2-oxo-ethyl]-2-methyl-pyrazole-3-carboxamide] showed an EC50 of 100 to 1000 nM.
`CC(C)n1cc(-c2ccc(Cl)c(C[C@H](NC(=O)C3(F)CCC3)C(=O)Nc3ccc(-c4nncn4C)cc3)c2)ccc1=O` [Example 148, N-[(1S)-1-[[2-chloro-5-(1-isopropyl-6-oxo-3-pyridyl)phenyl]methyl]-2-[4-(4-methyl-1,2,4-triazol-3-yl)anilino]-2-oxo-ethyl]-1-fluoro-cyclobutanecarboxamide] was tested, and the EC50 was greater than 1000 nM.
`Cc1n[nH]c(C)c1-c1ccc(NC(=O)[C@@H](NC(=O)c2ccnn2C)[C@@H]2CCc3ccc(-c4ccc5c(c4)CCN(C)C5)cc32)cc1` [Example 15, N-[(1S)-2-[4-(3,5-dimethyl-1H-pyrazol-4-yl)anilino]-1-[(1R)-6-(2-methyl-3,4-dihydro-1H-isoquinolin-6-yl)indan-1-yl]-2-oxo-ethyl]-2-methyl-pyrazole-3-carboxamide] showed an EC50 of less than 100 nM.
For `Cn1cncc1-c1ccc(NC(=O)C(Cc2cc(-c3ccnc(N4CC5(COC5)C4)c3)ccc2Cl)NC(=O)c2ccnn2C)cc1` (stereo not drawn) [Example 183, N-[1-[[2-chloro-5-[2-(6-oxa-2-azaspiro[3.3]heptan-2-yl)-4-pyridyl]phenyl]methyl]-2-[4-(3-methylimidazol-4-yl)anilino]-2-oxo-ethyl]-2-methyl-pyrazole-3-carboxamide], the EC50 was 100 to 1000 nM.
`Cc1nocc1C(=O)N[C@@H](Cc1cc(-c2ccnc(C(=O)C(C)(C)C)c2)ccc1Cl)C(=O)Nc1ccc(-c2nncn2C)cc1` [Example 84, N-[(1S)-1-[[2-chloro-5-[2-(2,2-dimethylpropanoyl)-4-pyridyl]phenyl]methyl]-2-[4-(4-methyl-1,2,4-triazol-3-yl)anilino]-2-oxo-ethyl]-3-methyl-isoxazole-4-carboxamide] was tested, and the EC50 was 100 to 1000 nM.
`Cc1n[nH]c(C)c1-c1ccc(NC(=O)[C@H](Cc2cc(-c3ccnn3C3CCC3)ccc2Cl)NC(=O)C2(F)CC2)cc1` [Example 226, N-[(1S)-1-[[2-chloro-5-(2-cyclobutylpyrazol-3-yl)phenyl]methyl]-2-[4-(3,5-dimethyl-1H-pyrazol-4-yl)anilino]-2-oxo-ethyl]-1-fluoro-cyclopropanecarboxamide] was tested, and the EC50 was 100 to 1000 nM.
In the case of `CC(C)n1cc(-c2ccc(Cl)c(C[C@H](NC(=O)OC3CC3)C(=O)Nc3ccc(-c4nncn4C)cc3)c2)ccc1=O` [Example 131, cyclopropyl N-[(1S)-1-[[2-chloro-5-(1-isopropyl-6-oxo-3-pyridyl)phenyl]methyl]-2-[4-(4-methyl-1,2,4-triazol-3-yl)anilino]-2-oxo-ethyl]carbamate], the EC50 is reported as 100 to 1000 nM.
Work on `Cc1[nH]nnc1-c1ccc(NC(=O)C(Cc2cc(-c3ccc(=O)n(C(C)C)c3)ccc2Cl)NC(=O)c2ccnn2C)cc1` (stereo not drawn) [Example 98, N-[1-[[2-chloro-5-(1-isopropyl-6-oxo-3-pyridyl)phenyl]methyl]-2-[4-(5-methyl-1H-triazol-4-yl)anilino]-2-oxo-ethyl]-2-methyl-pyrazole-3-carboxamide] yielded an EC50 of 100 to 1000 nM.
`CC(C)n1cc(-c2ccc(Cl)c(C[C@H](NC(=O)OC(C)(C)C)C(=O)Nc3ccc(-c4cncn4C)c(F)c3)c2)ccc1=O` [Example 134, tert-butyl N-[(1S)-1-[[2-chloro-5-(1-isopropyl-6-oxo-3-pyridyl)phenyl]methyl]-2-[3-fluoro-4-(3-methylimidazol-4-yl)anilino]-2-oxo-ethyl]carbamate] gave an EC50 of 100 to 1000 nM.
`Cc1[nH]ncc1-c1ccc(NC(=O)C(Cc2cc(-c3ccc(=O)n(C(C)C)c3)ccc2Cl)NC(=O)c2ccnn2C)cc1` (stereo not drawn) [Example 89, N-[1-[[2-chloro-5-(1-isopropyl-6-oxo-3-pyridyl)phenyl]methyl]-2-[4-(5-methyl-1H-pyrazol-4-yl)anilino]-2-oxo-ethyl]-2-methyl-pyrazole-3-carboxamide] gave an EC50 of 100 to 1000 nM.
`Cn1cncc1-c1ccc(NC(=O)[C@H](Cc2cc(-c3ccnc(C(C)(O)C4CC4)c3)ccc2Cl)NC(=O)C2(F)CC2)cc1` (stereo partly drawn) [Example 142, N-[(1S)-1-[[2-chloro-5-[2-(1-cyclopropyl-1-hydroxy-ethyl)-4-pyridyl]phenyl]methyl]-2-[4-(3-methylimidazol-4-yl)anilino]-2-oxo-ethyl]-1-fluoro-cyclopropanecarboxamide] gave an EC50 of less than 100 nM.
For `Cn1cncc1-c1ccc(NC(=O)[C@H](Cc2cc(-c3cccc([C@H]4COCCN4)c3)ccc2Cl)NC(=O)c2ccnn2C)cc1` [Example 215, N-[(1S)-1-[[2-chloro-5-[3-[(3S)-morpholin-3-yl]phenyl]phenyl]methyl]-2-[4-(3-methylimidazol-4-yl)anilino]-2-oxo-ethyl]-2-methyl-pyrazole-3-carboxamide], the EC50 was 100 to 1000 nM.
For `Cc1nccn1-c1ccc(NC(=O)[C@@H](NC(=O)C2(F)CC2)[C@@H]2CCCc3ccc(-c4ccnc(N5C[C@H]6C[C@@H]5CO6)c4)cc32)cc1` [Example 401, 1-fluoro-N-[(1S)-2-[4-(2-methylimidazol-1-yl)anilino]-1-[(1R)-7-[2-[(1R,4R)-2-oxa-5-azabicyclo[2.2.1]heptan-5-yl]-4-pyridyl]tetralin-1-yl]-2-oxo-ethyl]cyclopropanecarboxamide], the EC50 was 100 to 1000 nM.
`CC(C)n1cc(-c2ccc(Cl)c(CC(NC(=O)c3conc3C(C)(C)C)C(=O)Nc3ccc(-c4nncn4C)cc3)c2)ccc1=O` (stereo not drawn) [Example 96, 3-tert-butyl-N-[1-[[2-chloro-5-(1-isopropyl-6-oxo-3-pyridyl)phenyl]methyl]-2-[4-(4-methyl-1,2,4-triazol-3-yl)anilino]-2-oxo-ethyl]isoxazole-4-carboxamide] gave an EC50 of 100 to 1000 nM.
`CC(C)n1cc(-c2ccc(Cl)c(C[C@H](NC(=O)C3CCC3)C(=O)Nc3ccc(-c4nncn4C)cc3)c2)ccc1=O` [Example 293, N-[(1S)-1-[[2-chloro-5-(1-isopropyl-6-oxo-3-pyridyl)phenyl]methyl]-2-[4-(4-methyl-1,2,4-triazol-3-yl)anilino]-2-oxo-ethyl]cyclobutanecarboxamide] was tested, and the EC50 was greater than 1000 nM.
`CC(C)n1cc(-c2ccc(Cl)c(C[C@H](NC(=O)CC3CCC3)C(=O)Nc3ccc(-c4nncn4C)cc3)c2)ccc1=O` [Example 127, (2S)-3-[2-chloro-5-(1-isopropyl-6-oxo-3-pyridyl)phenyl]-2-[(2-cyclobutylacetyl)amino]-N-[4-(4-methyl-1,2,4-triazol-3-yl)phenyl]propanamide] was tested, and the EC50 was greater than 1000 nM.
For `Cc1n[nH]c(C)c1-c1ccc(NC(=O)[C@@H](NC(=O)c2ccnn2C)[C@@H]2CCc3ccc(-c4ccc5c(c4)CCNC5)cc32)cc1` [Example 17, N-[(1S)-2-[4-(3,5-dimethyl-1H-pyrazol-4-yl)anilino]-2-oxo-1-[(1R)-6-(1,2,3,4-tetrahydroisoquinolin-6-yl)indan-1-yl]ethyl]-2-methyl-pyrazole-3-carboxamide], the EC50 was less than 100 nM.
`CC(C)c1cc(-c2ccc(Cl)c(C[C@H](NC(=O)c3ccnn3C)C(=O)Nc3ccc(-c4cncn4C)cc3)c2)ncn1` [Example 205, N-[(1S)-1-[[2-chloro-5-(6-isopropylpyrimidin-4-yl)phenyl]methyl]-2-[4-(3-methylimidazol-4-yl)anilino]-2-oxo-ethyl]-2-methyl-pyrazole-3-carboxamide] showed an EC50 of 100 to 1000 nM.
